In ChEMBL document CHEMBL1629688, “A collection of caged compounds for probing roles of local translation in neurobiology” (Bioorg Med Chem, 2010):
Active and inactive are the calls of the source. The rule behind the calls is not given here.

Tested on: Ribosome
Experiment: Inhibition of ribosome peptidyl transferase site in rabbit reticulocytes assessed as inhibition of translation using firefly luciferase DNA as template at 0.8 to 80 uM after 1 hr by luciferase assay
Assay type: subcellular
Settings: Oryctolagus cuniculus

SMILES: CCN(CC)c1ccc2c(COC(=O)N3C[C@@H](O)[C@H](OC(C)=O)[C@@H]3Cc3ccc(OC)cc3)cc(=O)oc2c1
- inhibition: Active
